Assay results: PubChem BioAssay (NCI)
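Protocol summary: plate cells (96-well), add compound at 5 concentrations, incubate 48 h, interpolate endpoints linearly. GI50: concentration for 50% inhibition of growth. TGI: concentration producing complete growth inhibition.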

Columns and labels:
Assay in all cases: NCI tumour cell line growth inhibition, 48 h
786-0 renal = tested on: 786-0 renal
A498 renal = tested on: A498 renal
A549 NSCLC = tested on: A549 NSCLC
ACHN renal = tested on: ACHN renal
BT-549 breast = tested on: BT-549 breast
CAKI-1 renal = tested on: CAKI-1 renal
CCRF-CEM leukemia = tested on: CCRF-CEM leukemia
COLO 205 colon = tested on: COLO 205 colon
DU-145 prostate = tested on: DU-145 prostate
EKVX NSCLC = tested on: EKVX NSCLC
HCC-2998 colon = tested on: HCC-2998 colon
HCT-116 colon = tested on: HCT-116 colon
HCT-15 colon = tested on: HCT-15 colon
HL-60(TB) leukemia = tested on: HL-60(TB) leukemia
HOP-62 NSCLC = tested on: HOP-62 NSCLC
HOP-92 NSCLC = tested on: HOP-92 NSCLC
HS 578T breast = tested on: HS 578T breast
HT29 colon = tested on: HT29 colon
IGROV1 ovarian = tested on: IGROV1 ovarian
K-562 leukemia = tested on: K-562 leukemia
KM12 colon = tested on: KM12 colon
LOX IMVI melanoma = tested on: LOX IMVI melanoma
M14 melanoma = tested on: M14 melanoma
MALME-3M melanoma = tested on: MALME-3M melanoma
MCF7 breast = tested on: MCF7 breast
MDA-MB-231 breast = tested on: MDA-MB-231 breast
MDA-MB-435 = tested on: MDA-MB-435
MOLT-4 leukemia = tested on: MOLT-4 leukemia
NCI-H226 lung = tested on: NCI-H226 lung
NCI-H23 lung = tested on: NCI-H23 lung
NCI-H460 lung = tested on: NCI-H460 lung
NCI-H522 lung = tested on: NCI-H522 lung
NCI/ADR-RES ovarian = tested on: NCI/ADR-RES ovarian
OVCAR-3 ovarian = tested on: OVCAR-3 ovarian
OVCAR-4 ovarian = tested on: OVCAR-4 ovarian
OVCAR-5 ovarian = tested on: OVCAR-5 ovarian
OVCAR-8 ovarian = tested on: OVCAR-8 ovarian
PC-3 prostate = tested on: PC-3 prostate
RPMI-8226 leukemia = tested on: RPMI-8226 leukemia
RXF 393 renal = tested on: RXF 393 renal
SF-268 CNS = tested on: SF-268 CNS
SF-295 CNS = tested on: SF-295 CNS
SF-539 CNS = tested on: SF-539 CNS
SK-MEL-2 melanoma = tested on: SK-MEL-2 melanoma
SK-MEL-28 melanoma = tested on: SK-MEL-28 melanoma
SK-MEL-5 melanoma = tested on: SK-MEL-5 melanoma
SK-OV-3 ovarian = tested on: SK-OV-3 ovarian
SN12C renal = tested on: SN12C renal
SNB-19 CNS = tested on: SNB-19 CNS
SNB-75 CNS = tested on: SNB-75 CNS
SR leukemia = tested on: SR leukemia
SW-620 colon = tested on: SW-620 colon
T-47D breast = tested on: T-47D breast
TK-10 renal = tested on: TK-10 renal
U251 CNS = tested on: U251 CNS
UACC-257 melanoma = tested on: UACC-257 melanoma
UACC-62 melanoma = tested on: UACC-62 melanoma
UO-31 renal = tested on: UO-31 renal

## COC(=O)c1ccc2c(c1)C(=O)c1c-2n(CCCN)c(=O)c2cc([N+](=O)[O-])ccc12
786-0 renal
  GI50: < 0.025 µM
  TGI: 0.302 µM
A498 renal
  GI50: 0.116 µM
  TGI: 1.44 µM
A549 NSCLC
  GI50: < 0.03 µM
  TGI: 0.894 µM
ACHN renal
  GI50: < 0.01 µM
  TGI: 0.204 µM
BT-549 breast
  GI50: 0.265 µM
  TGI: 1.77 µM
CAKI-1 renal
  GI50: < 0.01 µM
  TGI: 1.36 µM
CCRF-CEM leukemia
  GI50: < 0.01 µM
  TGI: 0.0759 µM
COLO 205 colon
  GI50: 0.0737 µM
  TGI: 1.69 µM
DU-145 prostate
  GI50: < 0.0159 µM
  TGI: 0.391 µM
EKVX NSCLC
  GI50: 0.0811 µM
  TGI: 0.857 µM
HCC-2998 colon
  GI50: < 0.01 µM
  TGI: 0.058 µM
HCT-116 colon
  GI50: 0.0337 µM
  TGI: 0.959 µM
HCT-15 colon
  GI50: 0.0625 µM
  TGI: 0.56 µM
HL-60(TB) leukemia
  GI50: < 0.0194 µM
  TGI: 1.39 µM
HOP-62 NSCLC
  GI50: < 0.0161 µM
  TGI: 0.532 µM
HOP-92 NSCLC
  GI50: 0.301 µM
  TGI: 1.9 µM
HS 578T breast
  GI50: 0.422 µM
  TGI: 1.15 µM
HT29 colon
  GI50: < 0.0236 µM
  TGI: 0.436 µM
IGROV1 ovarian
  GI50: < 0.0156 µM
  TGI: 0.352 µM
K-562 leukemia
  GI50: 0.0206 µM
  TGI: 2.02 µM
KM12 colon
  GI50: 0.0675 µM
  TGI: 0.94 µM
LOX IMVI melanoma
  GI50: < 0.0115 µM
  TGI: 0.154 µM
M14 melanoma
  GI50: < 0.0222 µM
  TGI: 0.46 µM
MALME-3M melanoma
  GI50: 0.038 µM
  TGI: 1.36 µM
MCF7 breast
  GI50: < 0.01 µM
  TGI: 0.214 µM
MDA-MB-231 breast
  GI50: 0.426 µM
  TGI: 0.96 µM
MDA-MB-435
  GI50: 0.105 µM
  TGI: 1.44 µM
MOLT-4 leukemia
  GI50: < 0.01 µM
  TGI: 0.833 µM
NCI-H226 lung
  GI50: 0.102 µM
  TGI: 1.67 µM
NCI-H23 lung
  GI50: < 0.0318 µM
  TGI: 1.28 µM
NCI-H460 lung
  GI50: 0.0434 µM
  TGI: 1.1 µM
NCI-H522 lung
  GI50: < 0.0306 µM
  TGI: 0.588 µM
NCI/ADR-RES ovarian
  GI50: < 0.029 µM
  TGI: 0.682 µM
OVCAR-3 ovarian
  GI50: 0.242 µM
  TGI: 1.55 µM
OVCAR-4 ovarian
  TGI: 0.647 µM
OVCAR-5 ovarian
  GI50: 0.139 µM
  TGI: 0.661 µM
OVCAR-8 ovarian
  GI50: < 0.0344 µM
  TGI: 0.864 µM
PC-3 prostate
  GI50: < 0.0373 µM
  TGI: 1.49 µM
RPMI-8226 leukemia
  GI50: < 0.01 µM
  TGI: 0.117 µM
RXF 393 renal
  GI50: < 0.0345 µM
  TGI: 0.118 µM
SF-268 CNS
  GI50: < 0.0177 µM
  TGI: 1.4 µM
SF-295 CNS
  GI50: < 0.01 µM
SF-539 CNS
  GI50: < 0.0196 µM
  TGI: 0.21 µM
SK-MEL-2 melanoma
  TGI: 0.519 µM
SK-MEL-28 melanoma
  TGI: 0.81 µM
SK-MEL-5 melanoma
  GI50: < 0.0405 µM
  TGI: 0.8 µM
SK-OV-3 ovarian
  GI50: 0.0332 µM
  TGI: 1.65 µM
SN12C renal
  GI50: < 0.0233 µM
  TGI: 1.36 µM
SNB-19 CNS
  GI50: < 0.0205 µM
  TGI: 1.87 µM
SNB-75 CNS
  GI50: < 0.0348 µM
SR leukemia
  GI50: < 0.01 µM
  TGI: 0.367 µM
SW-620 colon
  GI50: < 0.01 µM
  TGI: 1.27 µM
T-47D breast
  GI50: < 0.0173 µM
  TGI: 1.34 µM
TK-10 renal
  GI50: 1.05 µM
  TGI: 2.92 µM
U251 CNS
  GI50: < 0.0127 µM
  TGI: 0.368 µM
UACC-257 melanoma
  GI50: 0.234 µM
  TGI: 1.23 µM
UACC-62 melanoma
  GI50: < 0.0254 µM
  TGI: 0.398 µM
UO-31 renal
  GI50: < 0.0137 µM
  TGI: < 0.0405 µM
